The term IC50 denotes the concentration that gives 50% inhibition. For orientation: inhibition means the change of the read-out against control, counted positive when it falls. High values mean a strong effect, low ones a weak effect.

Experiment [1] concerns the target T1, Tyrosine-protein kinase receptor UFO (Homo sapiens, UniProt P30530).
T1 sequence (P30530 whole entry): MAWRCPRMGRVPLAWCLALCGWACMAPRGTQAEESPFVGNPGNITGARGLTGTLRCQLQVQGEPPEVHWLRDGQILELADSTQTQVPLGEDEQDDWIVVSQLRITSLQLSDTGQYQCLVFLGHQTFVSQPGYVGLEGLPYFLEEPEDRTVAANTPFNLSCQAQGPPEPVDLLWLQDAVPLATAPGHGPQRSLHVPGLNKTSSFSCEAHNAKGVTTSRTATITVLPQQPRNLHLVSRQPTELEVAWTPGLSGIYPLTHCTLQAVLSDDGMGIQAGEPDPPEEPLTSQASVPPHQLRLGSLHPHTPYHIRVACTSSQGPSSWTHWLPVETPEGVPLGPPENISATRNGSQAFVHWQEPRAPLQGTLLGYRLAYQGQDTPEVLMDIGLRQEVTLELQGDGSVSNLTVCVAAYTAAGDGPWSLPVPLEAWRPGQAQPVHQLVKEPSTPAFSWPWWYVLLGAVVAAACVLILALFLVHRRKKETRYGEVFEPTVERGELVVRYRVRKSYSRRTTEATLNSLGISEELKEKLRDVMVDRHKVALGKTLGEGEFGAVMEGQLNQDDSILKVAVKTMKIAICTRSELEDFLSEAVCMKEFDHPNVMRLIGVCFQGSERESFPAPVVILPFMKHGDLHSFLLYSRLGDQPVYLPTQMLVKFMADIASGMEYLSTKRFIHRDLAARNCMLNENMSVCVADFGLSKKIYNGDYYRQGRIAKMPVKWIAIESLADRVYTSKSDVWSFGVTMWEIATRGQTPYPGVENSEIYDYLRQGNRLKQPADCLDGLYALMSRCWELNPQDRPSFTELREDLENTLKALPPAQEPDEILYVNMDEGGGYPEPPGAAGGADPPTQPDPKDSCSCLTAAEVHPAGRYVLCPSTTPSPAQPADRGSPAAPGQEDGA
The experiment can be described thus: Inhibition of recombinant human His-tagged AXL expressed in insect cells after 60 mins by Z'-LYTE assay.

Experiment [2] addresses Tyrosine-protein kinase receptor UFO (Homo sapiens) (UniProt P30530). The note with it: 1 uM.
Description: Inhibition of recombinant human His-tagged AXL expressed in insect cells at 1 uM after 60 mins by Z'-LYTE assay relative to control

Structures are written as SMILES.

Consider `c1ccc(-c2cnc3[nH]cc(-c4ccc(-c5nnn[nH]5)cc4)c3c2)cc1`, for which, in experiment [1], the IC50 came to 524 nM. In addition, the inhibition in experiment [2] worked out at 75%.
For the compound `O=C(O)c1cc(-c2c[nH]c3ncc(-c4ccccc4)cc23)ccc1F`, in experiment [1], the IC50 is above 1000 nM.
With `O=C(O)c1ccc(-c2c[nH]c3ncc(-c4ccccc4)cc23)cc1`, the IC50 in experiment [1] is 182 nM.

The record behind these values is ChEMBL document CHEMBL4000235, “Discovering novel 7-azaindole-based series as potent AXL kinase inhibitors” (Bioorg Med Chem Lett, 2017).
